Patent publication US12129265B2, “Therapeutic agents and uses thereof” (Ankh Life Sciences Limited, priority 2020, dated 2024)
Values after ≈ are worked out from the molar mass of the structure shown. Where two headings read alike, the source gives them in different places.

Key:
[1] = test system: AN3CA cells; test: CellTiter-Glo in vitro cell proliferation assay, Example 8; type: cell-based, Human; settings: Homo sapiens, AN3-CA, Example 24, Endometrial
Summary of the method: (§1)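 Luminescence after CellTiter-Glo addition (1:1 with water, 60 min RT) served as the proliferation read-out. Compounds at 0.0075–100 μM in DMSO were added 24 h post-plating and left for 72 h at 37 °C.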

[2] = test system: ASPC-1 cells; test: as above; type: cell-based, Human; settings: Homo sapiens, ASPC1, Example 24, ASPC-1, Pancreatic
Summary of the method: as §1

[3] = test system: DOHH-2 cells; test: as above; type: cell-based, Human; settings: Homo sapiens, Example 24, DOHH-2, Diffuse Large B-Cell Lymphoma
Summary of the method: as §1

[4] = test system: FaDu cells; test: as above; type: cell-based, Human; settings: Homo sapiens, Example 24, Squamous
Summary of the method: as §1

[5] = test system: H1650 (EGFR mut) cells; test: as above; type: cell-based, Human; settings: Homo sapiens, NCI-H1650, Example 24, Non Small Cell Lung
Summary of the method: as §1

[6] = test system: H1975 (EGFR mut) cells; test: as above; type: cell-based, Human; settings: Homo sapiens, NCI-H1975, Example 24, Non Small Cell Lung
Summary of the method: as §1

[7] = test system: HCC70 cells; test: as above; type: cell-based, Human; settings: Homo sapiens, Example 24, HCC70, Triple Negative Breast
Summary of the method: as §1

[8] = test system: JIM1 cells; test: as above; type: cell-based, Human; settings: Example 24, JIM1, human myeloma
Summary of the method: as §1

[9] = test system: KHM-1B cells; test: as above; type: cell-based, Human; settings: Example 24, human myeloma
Summary of the method: as §1

[10] = test system: KMM-1 cells; test: as above; type: cell-based, Human; settings: Example 24, KMM-1, human myeloma
Summary of the method: as §1

[11] = test system: KMS-11 cells; test: as above; type: cell-based, Human; settings: Example 24, KMS-11, human myeloma
Summary of the method: as §1

[12] = test system: KMS-27 cells; test: as above; type: cell-based, Human; settings: Example 24, KMS-27, human myeloma
Summary of the method: as §1

[13] = test system: KMS-34 cells; test: as above; type: cell-based, Human; settings: Example 24, KMS-34, human myeloma
Summary of the method: as §1

[14] = test system: L363 cells; test: as above; type: cell-based, Human; settings: L-363, Example 24, L363, human myeloma
Summary of the method: as §1

[15] = test system: MDA-MB-468 cells; test: as above; type: cell-based, Human; settings: Homo sapiens, Example 24, MDA-MB-468, Triple Negative Breast
Summary of the method: as §1

[16] = test system: MIA PaCa-2 cells; test: as above; type: cell-based, Human; settings: Homo sapiens, Example 24, MIA PaCa-2, Pancreatic
Summary of the method: as §1

[17] = test system: MM.1s cells; test: as above; type: cell-based, Human; settings: MM1.S, Example 24, MM.1S, human myeloma
Summary of the method: as §1

[18] = test system: MOLP-8 cells; test: as above; type: cell-based, Human; settings: Example 24, MOLP-8, human myeloma
Summary of the method: as §1

[19] = test system: OCI-LY3 cells; test: as above; type: cell-based, Human; settings: Homo sapiens, Example 24, OCI-LY3, Diffuse Large B-Cell Lymphoma
Summary of the method: as §1

[20] = test system: SiHA cells; test: as above; type: cell-based, Human; settings: Homo sapiens, Example 24, Squamous
Summary of the method: as §1

[21] = test system: N87 cells; test: as above; type: cell-based; settings: Homo sapiens, Example 24, N87, Gastric
Experimental: (§2) In this Example, in vitro cell proliferation assays were performed using: (1) Human Myeloma tumor cell lines; (2) Human Lymphoma tumor cell lines; (3) Solid Human tumor cell lines; and (4) Parental, Lenalidomide resistant and Bortezomib resistant Jeko-1 Mantle cell Lymphoma tumor cell lines. The compounds tested were three diharmaline compounds, namely the 518B562 (or simply 562), 560, and 561 compounds. In addition, a monoharmaline product designated as 518F014 was also tested. This monoharmaline product had the following structure:
(§3) Each proliferation assay was carried out as follows. The test cells were plated in growth media using a 384-well microtiter plate at 50 μL volume. The cells were incubated for 24 hours at 37° C. in a humidified incubator. After 24 hours of incubation, the test compounds were added to the test wells in DSMO solvent, at concentrations ranging from 0.0075-100 μM. Control wells received equal volumes of DSMO, without compound. Following drugging, the cells were incubated for 72 hours at 37° C. in a humidified incubator. After this exposure, 100 μL of a 1:1 mixture of sterile water and CellTiter-Glo® reagent (Promega) was added to each well. The plates were then incubated for 60 minutes at room temperature, followed by recording the luminescence value of each well using a luminometer as a measure of cell proliferation.

[22] = test system: RXF-393 cells; test: as above; type: cell-based; settings: Homo sapiens, Example 24, RXF-393, RCC
Experimental: as §2, §3

[23] = test system: SU-DHL-4 cells; test: as above; type: cell-based; settings: Homo sapiens, Example 24, SU-DHL-4, Diffuse Large B-Cell Lymphoma
Experimental: as §2, §3

[24] = test system: SU-DHL-6 cells; test: as above; type: cell-based; settings: Homo sapiens, Example 24, SU-DHL-6, Diffuse Large B-Cell Lymphoma
Experimental: as §2, §3

[25] = test system: Human Myeloma, Human Lymphoma, Solid Human tumor and Jeko-1 tumor cell lines; test: CellTiter-Glo in vitro cell proliferation assay, Example 8, whole panel; type: cell-based; settings: cell lines of Table 16
Experimental: as §2, §3

Q: What does the source list for COc1ccc2c3c([nH]c2c1)C(CC(CC1=NCCc2c1[nH]c1cc(OC)ccc21)c1cccc(Oc2ccccc2)c1)=NCC3 [compound 594, diharmaline 3-phenoxybenzaldehyde]?
A: IC50 ([1]; read-out: Mean): 2.79 µg/mL (≈ 4.59 µM); IC50 ([1]; read-out: Trial A): 2.79 µg/mL (≈ 4.59 µM); IC50 ([1]; read-out: Trial B): 2.8 µg/mL (≈ 4.59 µM); IC50 ([2]; read-out: Mean): 3.47 µg/mL (≈ 5.7 µM); IC50 ([2]; read-out: Trial A): 2.94 µg/mL (≈ 4.83 µM); IC50 ([2]; read-out: Trial B): 3.99 µg/mL (≈ 6.56 µM); IC50 ([3]; read-out: Mean): 2.64 µg/mL (≈ 4.34 µM); IC50 ([3]; read-out: Trial A): 2.58 µg/mL (≈ 4.23 µM); IC50 ([3]; read-out: Trial B): 2.71 µg/mL (≈ 4.45 µM); IC50 ([4]; read-out: Mean): 4.62 µg/mL (≈ 7.59 µM); IC50 ([4]; read-out: Trial A): 3.78 µg/mL (≈ 6.21 µM); IC50 ([4]; read-out: Trial B): 5.45 µg/mL (≈ 8.96 µM); IC50 ([5]; read-out: Mean): 2.58 µg/mL (≈ 4.23 µM); IC50 ([5]; read-out: Trial A): 2.61 µg/mL (≈ 4.28 µM); IC50 ([5]; read-out: Trial B): 2.55 µg/mL (≈ 4.19 µM); IC50 ([6]; read-out: Mean): 2.9 µg/mL (≈ 4.76 µM); IC50 ([6]; read-out: Trial A): 2.92 µg/mL (≈ 4.8 µM); IC50 ([6]; read-out: Trial B): 2.87 µg/mL (≈ 4.71 µM); IC50 ([7]; read-out: Mean): 6.87 µg/mL (≈ 11.3 µM); IC50 ([7]; read-out: Trial A): 6.15 µg/mL (≈ 10.1 µM); IC50 ([7]; read-out: Trial B): 7.59 µg/mL (≈ 12.5 µM); IC50 ([8]; read-out: Mean): 7.67 µg/mL (≈ 12.6 µM); IC50 ([8]; read-out: Trial A): 7.41 µg/mL (≈ 12.2 µM); IC50 ([8]; read-out: Trial B): 7.92 µg/mL (≈ 13 µM); IC50 ([9]; read-out: Mean): 6.65 µg/mL (≈ 10.9 µM); IC50 ([9]; read-out: Trial A): 6.48 µg/mL (≈ 10.6 µM); IC50 ([9]; read-out: Trial B): 6.81 µg/mL (≈ 11.2 µM); IC50 ([10]; read-out: Mean): 2.57 µg/mL (≈ 4.22 µM); IC50 ([10]; read-out: Trial A): 2.53 µg/mL (≈ 4.15 µM); IC50 ([10]; read-out: Trial B): 2.61 µg/mL (≈ 4.28 µM); IC50 ([11]; read-out: Mean): 6.04 µg/mL (≈ 9.92 µM); IC50 ([11]; read-out: Trial A): 6.43 µg/mL (≈ 10.6 µM); IC50 ([11]; read-out: Trial B): 5.64 µg/mL (≈ 9.27 µM); IC50 ([12]; read-out: Mean): 4.14 µg/mL (≈ 6.79 µM); IC50 ([12]; read-out: Trial A): 5.54 µg/mL (≈ 9.1 µM); IC50 ([12]; read-out: Trial B): 2.73 µg/mL (≈ 4.49 µM); IC50 ([13]; read-out: Mean): 3.89 µg/mL (≈ 6.39 µM); IC50 ([13]; read-out: Trial A): 4.23 µg/mL (≈ 6.94 µM); IC50 ([13]; read-out: Trial B): 3.55 µg/mL (≈ 5.83 µM); IC50 ([14]; read-out: Mean): 3.64 µg/mL (≈ 5.98 µM); IC50 ([14]; read-out: Trial A): 3.67 µg/mL (≈ 6.03 µM); IC50 ([14]; read-out: Trial B): 3.6 µg/mL (≈ 5.92 µM); IC50 ([15]; read-out: Mean): 2.79 µg/mL (≈ 4.58 µM); IC50 ([15]; read-out: Trial A): 2.9 µg/mL (≈ 4.76 µM); IC50 ([15]; read-out: Trial B): 2.68 µg/mL (≈ 4.41 µM); IC50 ([16]; read-out: Mean): 3.49 µg/mL (≈ 5.74 µM); IC50 ([16]; read-out: Trial A): 3.81 µg/mL (≈ 6.27 µM); IC50 ([16]; read-out: Trial B): 3.17 µg/mL (≈ 5.21 µM); IC50 ([17]; read-out: Mean): 2.57 µg/mL (≈ 4.22 µM); IC50 ([17]; read-out: Trial A): 2.48 µg/mL (≈ 4.08 µM); IC50 ([17]; read-out: Trial B): 2.66 µg/mL (≈ 4.36 µM); IC50 ([18]; read-out: Mean): 2.72 µg/mL (≈ 4.47 µM); IC50 ([18]; read-out: Trial A): 2.73 µg/mL (≈ 4.49 µM); IC50 ([18]; read-out: Trial B): 2.7 µg/mL (≈ 4.44 µM); IC50 ([19]; read-out: Mean): 5.7 µg/mL (≈ 9.37 µM); IC50 ([19]; read-out: Trial A): 3.87 µg/mL (≈ 6.35 µM); IC50 ([19]; read-out: Trial B): 7.54 µg/mL (≈ 12.4 µM); IC50 ([20]; read-out: Mean): 8.73 µg/mL (≈ 14.3 µM); IC50 ([20]; read-out: Trial A): 8.56 µg/mL (≈ 14.1 µM); IC50 ([20]; read-out: Trial B): 8.89 µg/mL (≈ 14.6 µM); IC50 ([21]; read-out: Mean): 4.26 µg/mL (≈ 7 µM); IC50 ([21]; read-out: Trial A): 3.48 µg/mL (≈ 5.72 µM); IC50 ([21]; read-out: Trial B): 5.04 µg/mL (≈ 8.27 µM); IC50 ([22]; read-out: Mean): 3.16 µg/mL (≈ 5.19 µM); IC50 ([22]; read-out: Trial A): 3.16 µg/mL (≈ 5.19 µM); IC50 ([22]; read-out: Trial B): 3.16 µg/mL (≈ 5.19 µM); IC50 ([23]; read-out: Mean): 2.73 µg/mL (≈ 4.49 µM); IC50 ([23]; read-out: Trial A): 2.77 µg/mL (≈ 4.55 µM); IC50 ([23]; read-out: Trial B): 2.7 µg/mL (≈ 4.44 µM); IC50 ([24]; read-out: Mean): 2.36 µg/mL (≈ 3.87 µM); IC50 ([24]; read-out: Trial A): 2.48 µg/mL (≈ 4.07 µM); IC50 ([24]; read-out: Trial B): 2.23 µg/mL (≈ 3.67 µM); effectiveness in cell proliferation assays [25]: effective against a wide variety of cancer cells
